Test results published in ChEMBL document CHEMBL3864145, “Synthesis and biological evaluation of crown ether acyl derivatives” (Bioorg Med Chem Lett, 2016).
≈ marks a conversion by molar mass, not a printed value.

Experiments:
Candida albicans [1] = assay: Antifungal activity against Candida albicans ATCC 90028 by broth microdilution method; assay type: functional
Escherichia coli = assay: Antibacterial activity against Escherichia coli ATCC 25922 at 50 uM after 24 hrs by UV/Vis spectrophotometer relative to control; assay type: functional; conditions: ATCC 25922, 24 h
[2] = Cytotoxicity against human HeLa cells assessed as growth inhibition after 48 hrs by SRB assay; assay type: functional
Candida albicans [3] = assay: Antifungal activity against Candida albicans ATCC 90028 at 50 uM after 48 hrs by UV/Vis spectrophotometer relative to control; assay type: functional; conditions: ATCC 90028, 48 h
[4] = Cytotoxicity against human WiDr cells assessed as growth inhibition after 48 hrs by SRB assay; assay type: functional
Staphylococcus aureus [5] = assay: Antibacterial activity against Staphylococcus aureus ATCC 25923 at 50 uM after 24 hrs by UV/Vis spectrophotometer relative to control; assay type: functional; conditions: ATCC 25923, 24 h
[6] = Cytotoxicity against human HBL100 cells assessed as growth inhibition after 48 hrs by SRB assay; assay type: functional; conditions: HBL-100, 48 h
Staphylococcus aureus [7] = assay: Antibacterial activity against Staphylococcus aureus ATCC 25923 by broth microdilution method; assay type: functional
[8] = Cytotoxicity against telomerase-immortalized human BJ cells assessed as growth inhibition after 48 hrs by SRB assay; assay type: toxicity, cell-based
[9] = Cytotoxicity against human SW1573 cells assessed as growth inhibition after 48 hrs by SRB assay; assay type: functional; conditions: SW1573, 48 h
Enterococcus faecalis = assay: Antibacterial activity against Enterococcus faecalis ATCC 29212 at 50 uM after 24 hrs by UV/Vis spectrophotometer relative to control; assay type: functional; conditions: ATCC 29212, 24 h
[10] = Ratio of MIC50 for Staphylococcus aureus ATCC 25923 to GI50 for human HBL100 cells; assay type: functional, HBL-100
[11] = Ratio of MIC50 for Staphylococcus aureus ATCC 25923 to GI50 for human WiDr cells; assay type: functional
[12] = Ratio of MIC50 for Staphylococcus aureus ATCC 25923 to GI50 for human SW1573 cells; assay type: functional
[13] = Ratio of MIC50 for Staphylococcus aureus ATCC 25923 to GI50 for human HeLa cells; assay type: functional

Row | SMILES | MIC50 (Candida albicans [1]) [µg/mL] | MIC90 (Candida albicans [1]) | inhibition at 50 µM (Escherichia coli) [%] | GI50 [2] [µM] | inhibition at 50 µM (Candida albicans [3]) [%] | GI50 [4] [µM] | inhibition at 50 µM (Staphylococcus aureus [5]) [%] | GI50 [6] [µM] | MIC50 (Staphylococcus aureus [7]) | MIC90 (Staphylococcus aureus [7]) | GI50 at 48 h [8] [µM] | GI50 [9] [µM] | inhibition at 50 µM (Enterococcus faecalis) [%] | Ratio [10] | Ratio [11] | Ratio [12] | Ratio [13]
1 | O=C(CCc1ccc2ccc3cccc4ccc1c2c34)OCC1COCCOCCOCCOCCOCCO1 (stereo unspecified) | 20.1 (≈ 36.5 µM) | 42 µM | 0 | 17 | 101 | 19 | 99 | 21 | 7.2 µM | 8.3 µM | 19 | 18 | 0 | – | – | – | –
2 | CC(C)=CC1C(C(=O)OCC2COCCOCCOCCOCCOCCO2)C1(C)C (stereo unspecified) | – | – | 0 | 63 | 0 | 56 | 0 | 40 | – | – | > 100 | 54 | 0 | – | – | – | –
3 | CC1(C(=O)OCC2COCCOCCOCCOCCOCCO2)c2ccccc2-c2ccccc21 (stereo unspecified) | – | – | 0.1 | 12 | 0 | 12 | 0 | 11 | – | – | 18 | 8.8 | 0 | – | – | – | –
4 | O=C(CCCCC1CCCCC1)OCC1COCCOCCOCCO1 (stereo unspecified) | – | – | 4.9 | > 100 | 0 | > 100 | 0 | > 100 | – | – | – | > 100 | 0 | – | – | – | –
5 | O=C(OCC1COCCOCCOCCOCCOCCO1)c1cccc(-c2ccc(Br)cc2)c1 (stereo unspecified) | – | – | 6.5 | 7.8 | 1 | 6.2 | 98 | 6.4 | 6.8 µg/mL | 25 µM | 8.2 | 4.4 | 0 | – | – | – | –
6 | O=C(CCCCCCCCCCOc1ccccc1)OCC1COCCOCCOCCOCCOCCO1 (stereo unspecified) | – | 36 µM | 0 | 41 | 101 | 66 | 29 | 20 | – | – | 24 | 24 | 2.1 | – | – | – | –
7 | O=C(CCCc1cc2ccccc2[nH]1)OCC1COCCOCCOCCOCCOCCO1 (stereo unspecified) | – | – | – | > 100 | – | > 100 | – | > 100 | – | – | – | > 100 | – | – | – | – | –
8 | O=C(CCCCCc1ccccc1)OCC1COCCOCCOCCOCCOCCO1 (stereo unspecified) | – | – | 5.8 | 79 | 11 | > 100 | 0 | 64 | – | – | – | 78 | 0 | – | – | – | –
9 | O=C(CCCCC1CCCCC1)OCC1COCCOCCOCCOCCOCCO1 (stereo unspecified) | – | – | 0 | 71 | 0 | 33 | 61 | 72 | – | – | – | 51 | 0 | – | – | – | –
10 | O=C(/C=C/c1ccccc1)OCC1COCCOCCOCCOCCOCCO1 (stereo unspecified) | – | – | 5.9 | 48 | 36.7 | > 100 | 3.4 | 57 | – | – | – | 48 | 3.3 | – | – | – | –
11 | CC/C=C/CC(=O)OCC1COCCOCCOCCOCCOCCO1 (stereo unspecified) | – | – | 4.3 | > 100 | 9.4 | > 100 | 6.9 | > 100 | – | – | – | > 100 | 4.7 | – | – | – | –
12 | O=C(CCCCC1CCCCC1)OCC1COCCOCCOCCOCCO1 (stereo unspecified) | – | – | 3.1 | > 100 | 0 | > 100 | 0 | > 100 | – | – | – | > 100 | 0 | – | – | – | –
13 | O=C(OCC1COCCOCCOCCOCCOCCO1)c1c2ccccc2cc2ccccc12 (stereo unspecified) | – | – | 7.8 | 3.7 | 4.3 | 5.6 | 98 | 5 | 11.1 µg/mL | 50 µM | 5.4 | 3.8 | 0 | 4 | 4 | 4 | 4
14 | O=C(OCC1COCCOCCOCCOCCOCCO1)c1cccnc1 (stereo unspecified) | – | – | 6.2 | > 100 | 24 | > 100 | 0 | > 100 | – | – | – | > 100 | 6.8 | – | – | – | –
15 | O=C(CCCCOc1ccccc1)OCC1COCCOCCOCCOCCOCCO1 (stereo unspecified) | – | – | 8.1 | > 100 | 1.6 | > 100 | 0 | > 100 | – | – | – | > 100 | 3.5 | – | – | – | –
16 | O=C(Cc1cccc(OCc2ccccc2)c1)OCC1COCCOCCOCCOCCOCCO1 (stereo unspecified) | – | – | 3.6 | 35 | 0 | 24 | 0 | 29 | – | – | 22 | 36 | 0 | – | – | – | –
17 | CC(=O)OCC1COCCOCCOCCOCCOCCO1 (stereo unspecified) | – | – | – | > 100 | – | > 100 | – | > 100 | – | – | – | > 100 | – | – | – | – | –
18 | O=C(CCCCc1ccccc1)OCC1COCCOCCOCCOCCOCCO1 (stereo unspecified) | – | – | 5 | 52 | 5.5 | > 100 | 0 | 69 | – | – | – | > 100 | 0.3 | – | – | – | –
19 | COc1ccc(/C=C/C(=O)OCC2COCCOCCOCCOCCOCCO2)cc1 (stereo unspecified) | – | – | 7.3 | 56 | 0 | 56 | 0 | 50 | – | – | > 100 | 54 | 0 | – | – | – | –
20 | C[C@@H]1[C@H](O)[C@@H](C)/C=C/C=C/C=C/C=C/C=C/C=C/C=C/[C@H](O[C@@H]2O[C@H](C)[C@@H](O)[C@H](N)[C@@H]2O)C[C@@H]2O[C@](O)(C[C@@H](O)C[C@@H](O)[C@H](O)CC[C@@H](O)C[C@@H](O)CC(=O)O[C@H]1C)C[C@H](O)[C@H]2C(=O)O [AMPHOTERICIN B] | – | 0.5 µg/mL | – | – | – | – | – | – | – | – | – | – | – | – | – | – | –
21 | O=C(O)c1cn(C2CC2)c2cc(N3CCNCC3)c(F)cc2c1=O [CIPROFLOXACIN] | – | – | – | – | – | – | – | – | – | 0.5 µg/mL | – | – | – | – | – | – | –
22 | COc1cc([C@@H]2c3cc4c(cc3[C@@H](O[C@@H]3O[C@@H]5CO[C@@H](C)O[C@H]5[C@H](O)[C@H]3O)[C@H]3COC(=O)[C@H]23)OCO4)cc(OC)c1O [ETOPOSIDE] | – | – | – | 3.3 | – | 23 | – | 1.4 | – | – | – | 15 | – | – | – | – | –
